Assay results reported in ChEMBL document CHEMBL1268903, “Biologically active biotin derivatives of schweinfurthin F” (Bioorg Med Chem Lett, 2010).

Columns and labels:
SF-295 = assay: Cytotoxicity against human SF295 cells; assay type: functional, cell-based
A549 = assay: Cytotoxicity against human A549 cells; assay type: functional, cell-based
[1] = Cytotoxicity against human NCI60 cells; assay type: functional

Row | SMILES | EC50 (SF-295) [nM] | EC50 (A549) [nM] | GI50 [1] [nM]
1 | COCOc1cc(/C=C/c2cc3c(c(OC)c2)O[C@]2(C)CC[C@@H](O)C(C)(C)[C@H]2C3)cc(OC)c1C/C=C(\C)C/C=C/C(C)COC(=O)CCCC[C@H]1SC[C@H]2NC(=O)N[C@H]21 (stereo partly drawn) | 2700 | > 10000 | 
2 | COCOc1cc(/C=C/c2cc3c(c(OC)c2)O[C@]2(C)CC[C@@H](O)C(C)(C)[C@H]2C3)cc(OC)c1C/C=C(\C)C/C=C/C(C)CNC(=O)CCCC[C@H]1SC[C@H]2NC(=O)N[C@H]21 (stereo partly drawn) | 1100 | 5000 | 
3 | COc1cc(/C=C/c2cc(O)c(C/C=C(\C)CCC=C(C)C)c(O)c2)cc2c1O[C@]1(C)CC[C@@H](O)C(C)(C)[C@H]1C2 [3-DEOXYSCHWEINFURTHIN B] |  | 4900 | 1000
4 | CC(C)=CCC/C(C)=C/Cc1c(O)cc(/C=C/c2cc(O)c3c(c2)C[C@@H]2C(C)(C)[C@H](O)[C@H](O)C[C@@]2(C)O3)cc1O [SCHWEINFURTHIN A] |  |  | 1000
5 | COc1cc(/C=C/c2cc(O)c(CC=C(C)C)c(O)c2)cc2c1O[C@]1(C)CC[C@@H](O)C(C)(C)[C@H]1C2 [SCHWEINFURTHIN F] |  |  | 1000
